Measured values from patent US20240398773A1, “COMPOSITIONS COMPRISING OTESECONAZOLE” (Mycovia Pharmaceuticals, Inc., priority 2021, published 2024).
Like-named read-outs stand apart in the source and are kept apart here.

How the values were obtained:
Candida species = test: Phase 2a dose-ranging study in moderate-to-severe acute VVC, effective therapeutic cure; format: in vivo, human; settings: Per Protocol population
Experimental: (§1) Oteseconazole has previously been evaluated in a Phase 2a multi-center, randomized, double-blind, active-controlled, parallel-group, dose-ranging study in patients with moderate-to-severe acute VVC. A total of 55 subjects with moderate-to-severe acute VVC (severity score ≥6 and a positive fungal KOH test) participated in the study across 4 dose groups: 1) oteseconazole 300 mg qd for 3 days: 2) 600 mg qd for 3 days: 3) 600 mg bid for 3 days; or 4) a single dose of fluconazole 150 mg followed by matching placebo. […] No safety signals of clinical concern were observed from the safety assessments.
The efficacy of oteseconazole in the treatment of moderate-to-severe acute VVC was evaluated at the TOC visit in the Per Protocol population at the Day 28 test of cure (TOC) visit was, 87%, 86%, 86%, and 75% of subjects receiving the low, mid-, or high-dose oteseconazole or comparator arm of fluconazole, respectively, achieved an effective therapeutic cure (defined as having a total clinical signs and symptoms severity score of ≤1 and a negative culture for Candida species) in the Per Protocol population

Tinea Pedis = test: Study CL-003 therapeutic cure of tinea pedis; format: in vivo, human
Excerpt: Even though the target concentrations were not reached for either dose group in this study, oteseconazole was efficacious in treating TP.

acute VVC episodes = test: Study CL-012 culture-verified acute VVC episodes; format: in vivo, human; settings: 150 mg QD for 7 days, then 150 mg QW for 11 weeks
Experimental: The average percentage of subjects with one or more culture-verified acute VVC episodes in the 150 mg oteseconazole group was 3.9% versus 39.4% in the placebo group.

[1] = Study CL-003 in subjects with tinea pedis, plasma PK; format: in vivo, human; settings: for AUC(0-t): read-out: AUC0−8
Experimental: Oteseconazole was slowly absorbed, with median time to peak plasma concentration values that ranged from 5.0 to 6.0 hours after dosing on Days 1 and 14 for all treatments. […] The Cmax values on Day 1 were similar between the mid- and high-dose treatments, since the first dose on that day was 600 mg for each treatment.

[2] = Study CL-007 DDI and PKE cohorts, plasma PK; format: in vivo; set-up: AUC(0-t) / AUC(0-inf): concentration or dose not given beside the values; settings: human; for AUC(0-t): read-out: AUC0-24
Experimental: The median Tmax was 4.0 hours on Day 3 and 6.0 hours on Day 16. […] The increase in oteseconazole concentrations after 14 days of daily dosing was expected based on the long half-life of oteseconazole and are a consequence of accumulation and not of concomitant administration of midazolam.
The geometric mean AUC0-24 was 26120 h*ng/ml and the geometric mean AUC0-∞ was 57290 h*ng/mL. These values were consistent with the oteseconazole plasma PK parameters calculated on Day 3 in the DDI cohort.

Study CL-004 plasma PK = format: in vivo, human; settings: for concentration at 24 h / concentration at 168 day / half-life / Tmax / Cmax / AUC(0-t): human, plasma; for concentration at 24 h: read-out: predicted minimum concentration (Cmin) at 24 hours after the final Day 3 dose; for half-life: read-out: median t1/2 (converted); for Tmax: read-out: median Tmax; for AUC(0-t): read-out: AUC0-8
Experimental: The ty, values were estimated on the basis of blood sampling that was carried out between approximately 7 and 168 days after administration of the first dose. […] The oteseconazole concentrations on Day 168 remained measurable (127, 409, and 1300 ng/mL for the 300 mg QD, 600 mg QD, and 600 mg BID treatment groups, respectively) and remained at or above therapeutic concentrations for the 600 mg QD and 600 mg BID treatment groups.
Based on the calculated Cmin values, only about 50% of the target was met for the 300 mg QD and 600 mg QD treatment groups, with the 600 mg BID treatment group reaching the target anticipated for the 600 mg QD group.

[3] = Phase 2b study and three Phase 3 studies, plasma concentration at end of dosing; format: in vivo; settings: human, oral, loading dose Days 1 and 2, then 150 mg weekly, read-out: mean plasma concentrations at the end of the dosing period (Week 14)
Experimental: Oteseconazole dosing regimens will also incorporate a 150 mg once weekly maintenance dose phase for 11 weeks. The initial loading dose given on Days 1 and 2 combined with maintenance dosing of 150 mg oteseconazole weekly for a total treatment duration of 12 weeks was efficacious in preventing recurrence of acute VVC episodes for the duration of the study (48-50 weeks). Based on the PK results from a Phase 2b study and three Phase 3 studies, mean plasma concentrations of approximately 2.5 to 3.5 μg/mL are observed at the end of the dosing period (Week 14).

[4] = Phase 2a acute VVC study, safety; format: in vivo, human; settings: administered for 3 days
Experimental: as §1

[5] = human, plasma, High Dose 1200 mg/300 mg, Day 1
[6] = human, plasma, High Dose 1200 mg/300 mg, Day 14
[7] = human, plasma, Low Dose 200 mg/50 mg, Day 1
[8] = human, plasma, Low Dose 200 mg/50 mg, Day 14
[9] = human, plasma, Mid Dose 600 mg/150 mg, Day 1
[10] = human, plasma, Mid Dose 600 mg/150 mg, Day 14
[11] = DDI Cohort, Day 3, geometric mean
[12] = DDI Cohort, Day 16, geometric mean
[13] = PKE Cohort, Day 1, geometric mean
[14] = 300 mg, 300 mg QD treatment group
[15] = 600 mg, 600 mg BID treatment group
[16] = 600 mg, 600 mg QD treatment group

increase in Cmax, high-dose versus mid-dose treatment ([1]; Day 14, 2-fold dose difference): 15%
increase in concentration (Cmax), mid versus low dose ([1]; Days 1 and 14, 3-fold increase in dose): 2 fold
Cmax achieved as share of target ([1]; high-dose group): about 25%
Cmax [1, 5]: 757 ng/mL
Tmax [1, 5]: 5 h
AUC(0-t) [1, 5]: 3.54 µg·h/mL
Cmax [1, 6]: 2520 ng/mL
Tmax [1, 6]: 5.02 h
AUC(0-t) [1, 6]: 17.6 µg·h/mL
Cmax [1, 7]: 366 ng/mL
Tmax [1, 7]: 6 h
AUC(0-t) [1, 7]: 1.68 µg·h/mL
Cmax [1, 8]: 1090 ng/mL
Tmax [1, 8]: 5 h
AUC(0-t) [1, 8]: 7.95 µg·h/mL
Cmax [1, 9]: 679 ng/mL
Tmax [1, 9]: 6 h
AUC(0-t) [1, 9]: 3.32 µg·h/mL
Cmax [1, 10]: 2180 ng/mL
Tmax [1, 10]: 5 h
AUC(0-t) [1, 10]: 16.1 µg·h/mL
half-life ([1]; human, plasma, blood sampling for 168 days (4032 hours), read-out: terminal phase half-life, range of median values): 86.7 to 172 days
Cmax achieved as share of target ([1]; mid-dose group): about 50%
AUC(0-inf) [2, 11]: 49.4 µg·h/mL
Cmax [2, 11]: 1910 ng/mL
AUC(0-t) [2, 11]: 24.6 µg·h/mL
Tmax ([2]; DDI Cohort, Day 3, median): 4 h
AUC(0-inf) [2, 12]: 4880 µg·h/mL
Cmax [2, 12]: 11600 ng/mL
AUC(0-t) [2, 12]: 243 µg·h/mL
Tmax ([2]; DDI Cohort, Day 16, median): 6 h
AUC(0-inf) [2, 13]: 57.3 µg·h/mL
Cmax [2, 13]: 1900 ng/mL
AUC(0-t) [2, 13]: 26.1 µg·h/mL
Tmax ([2]; PKE Cohort, Day 1, median): 6 h
share of target Cmin met (Study CL-004 plasma PK; 300 mg QD and 600 mg QD treatment groups): about 50%
concentration at 24 h (Study CL-004 plasma PK; 300 mg, 300 mg QD dose group): 705 ng/mL
concentration at 168 day (Study CL-004 plasma PK; [14]): 127 ng/mL
half-life (Study CL-004 plasma PK; [14]): 75.9 days
concentration at 24 h (Study CL-004 plasma PK; 600 mg, 600 mg BID dose group): 2830 ng/mL
concentration at 168 day (Study CL-004 plasma PK; [15]): 1300 ng/mL
half-life (Study CL-004 plasma PK; [15]): 160 days
concentration at 24 h (Study CL-004 plasma PK; 600 mg, 600 mg QD dose group): 1000 ng/mL
concentration at 168 day (Study CL-004 plasma PK; [16]): 409 ng/mL
half-life (Study CL-004 plasma PK; [16]): 133 days
Tmax (Study CL-004 plasma PK; 300 mg dose): 4 h
Tmax (Study CL-004 plasma PK; 600 mg dose): 5.5 h
Cmax (Study CL-004 plasma PK; Day 1, 300 mg dose): 407 ng/mL
AUC(0-t) (Study CL-004 plasma PK; Day 1, 300 mg dose): 1.87 µg·h/mL
Cmax (Study CL-004 plasma PK; Day 1, 600 mg dose): 968 ng/mL
AUC(0-t) (Study CL-004 plasma PK; Day 1, 600 mg dose): 4.23 µg·h/mL
concentration at 14 week [3]: 2500 to 3500 ng/mL
SMILES: O[C@@](Cn1cnnn1)(c1ccc(F)cc1F)C(F)(F)c1ccc(-c2ccc(OCC(F)(F)F)cc2)cn1 [Oteseconazole, oteseconazole]
subjects achieving effective therapeutic cure at Day 28 TOC visit (Candida species; high dose, oteseconazole 600 mg bid for 3 days): 86%
subjects achieving effective therapeutic cure at Day 28 TOC visit (Candida species; low dose, oteseconazole 300 mg qd for 3 days): 87%
subjects achieving effective therapeutic cure at Day 28 TOC visit (Candida species; mid dose, oteseconazole 600 mg qd for 3 days): 86%
therapeutic cure (Tinea Pedis; high dose group): 21.4%
therapeutic cure (Tinea Pedis; low dose group): 16.7%
therapeutic cure (Tinea Pedis; mid dose group): 8.3%
average percentage of subjects with one or more culture-verified acute VVC episodes (acute VVC episodes): 3.9%
serious adverse events [4]: no serious adverse events
safety and tolerability ([4]; 300 mg qd to 600 mg bid): safe and well tolerated
